Source: patent US8415272B2, “Quinoline derivatives and their use as fungicides” (Syngenta Crop Protection LLC, priority 2008, dated 2013)

Legend:
[1] = tested on: Pythium ultimum; test: Growth inhibition in potato dextrose broth, Pythium ultimum (damping off), photometric; type: cell-based; details: Globisporangium ultimum, 24° C., 48 hours, read-out: control of fungal infection, Pythium ultimum
How it was run: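 Growth inhibition was read photometrically at 48 hours after incubation at 24° C. Test compound was diluted from DMSO to 20 ppm in water and combined with potato dextrose broth seeded with Pythium ultimum mycelial fragments.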

[2] = tested on: Erysiphe graminis f.sp. tritici; test: Leaf disk assay, Erysiphe graminis f.sp. tritici (wheat powdery mildew), preventive; type: in vivo; details: Blumeria graminis, foliar, 96 h, wheat leaf segments, assessed four days after inoculation, read-out: control of fungal infection, Erysiphe graminis f.sp. tritici
How it was run: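 Preventive protocol: compound at 200 ppm in water (from DMSO) sprayed onto wheat leaf segments on agar, dried 12–24 h, then spore-inoculated. Fungicidal activity was assessed four days post-inoculation.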

[3] = tested on: Puccinia recondita f.sp. tritici; test: Leaf disk assay, Puccinia recondita f.sp. tritici (wheat brown rust), preventive; type: in vivo; details: foliar, 216 h, wheat leaf segments, assessed nine days after inoculation, read-out: control of fungal infection, Puccinia recondita f.sp. tritici
[4] = tested on: Fusarium culmorum; test: Growth inhibition in nutrient broth, Fusarium culmorum (root rot), photometric; type: cell-based; details: 48 h, read-out: control of fungal infection, Fusarium culmorum
Experimental: The compounds were tested in a leaf disk assay, with methods described below. The test compounds were dissolved in DMSO and diluted into water to 200 ppm. In the case of the test on Pythium ultimum, they were dissolved in DMSO and diluted into water to 20 ppm.
Fusarium culmorum (root rot): Conidia of the fungus from cryogenic storage were directly mixed into nutrient broth (PDB potato dextrose broth). After placing a (DMSO) solution of the test compounds into a microtiter plate (96-well format) the nutrient broth containing the fungal spores was added. The test plates were incubated at 24 C and the inhibition of growth was determined photometrically after 48 hrs.

[5] = tested on: Phytophthora infestans; test: whole plant or invertebrate; type: in vivo; details: in Solanum lycopersicum, foliar, 96 h, read-out: control of fungal infection, Phytophthora infestans
[6] = tested on: Septoria nodorum; test: Leaf disk assay, Septoria nodorum (wheat glume blotch), preventive; type: in vivo; details: Parastagonospora nodorum, foliar, 96 h, wheat leaf segments, assessed four days after inoculation, read-out: control of fungal infection, Septoria nodorum
[7] = tested on: Septoria tritici; test: Growth inhibition in nutrient broth, Septoria tritici (leaf blotch), photometric; type: cell-based; details: Zymoseptoria tritici, PDB broth, 24 C, 72 hrs, read-out: control of fungal infection, Septoria tritici
[8] = tested on: Plasmopara viticola; test: Leaf disk assay, Plasmopara viticola (downy mildew of grapevine), preventive; type: in vivo; details: foliar, 168 h, grapevine leaf disks, assessed seven days after inoculation, read-out: control of fungal infection, Plasmopara viticola

C#CCOCC(C)(C)NC(=O)C(OC)Oc1ccc2ncc(C#C)cc2c1 (centres unmarked) [Example 127]
≥ 60%: inhibition of growth at 20 ppm [1] | pest or weed control at 200 ppm [2] | pest or weed control at 200 ppm [3] | inhibition of growth at 60 ppm [4] | pest or weed control at 200 ppm [5] | pest or weed control at 200 ppm [6] | inhibition of growth at 60 ppm [7] | pest or weed control at 200 ppm [8]

C#Cc1cnc2ccc(OC(SC)C(=O)NC3CCCC3)cc2c1 (centres unmarked) [Example 214]
≥ 60%: inhibition of growth at 20 ppm [1] | pest or weed control at 200 ppm [2] | pest or weed control at 200 ppm [3] | inhibition of growth at 60 ppm [4] | pest or weed control at 200 ppm [5] | pest or weed control at 200 ppm [6] | inhibition of growth at 60 ppm [7] | pest or weed control at 200 ppm [8]

C#Cc1cnc2ccc(OC(SC)C(=O)NCC)cc2c1 (centres unmarked) [Example 97]
≥ 60%: inhibition of growth at 20 ppm [1] | pest or weed control at 200 ppm [2] | pest or weed control at 200 ppm [3] | inhibition of growth at 60 ppm [4] | pest or weed control at 200 ppm [5] | pest or weed control at 200 ppm [6] | inhibition of growth at 60 ppm [7] | pest or weed control at 200 ppm [8]

C#Cc1cnc2ccc(OC(SC)C(=O)NC(C)(C#CC)CC)cc2c1 (centres unmarked) [Example 204]
≥ 60%: inhibition of growth at 20 ppm [1] | pest or weed control at 200 ppm [2] | pest or weed control at 200 ppm [3] | inhibition of growth at 60 ppm [4] | pest or weed control at 200 ppm [5] | pest or weed control at 200 ppm [6] | inhibition of growth at 60 ppm [7] | pest or weed control at 200 ppm [8]

C#CCC(C)(C)NC(=O)C(Oc1cc2cc(C#C)cnc2cc1F)SC (centres unmarked) [Example 187]
≥ 60%: inhibition of growth at 20 ppm [1] | pest or weed control at 200 ppm [2] | pest or weed control at 200 ppm [3] | inhibition of growth at 60 ppm [4] | pest or weed control at 200 ppm [5] | pest or weed control at 200 ppm [6] | inhibition of growth at 60 ppm [7] | pest or weed control at 200 ppm [8]

C#Cc1cnc2cc(F)c(OC(SC)C(=O)NC(C)(C=O)COC)cc2c1 (centres unmarked) [Example 210]
≥ 60%: inhibition of growth at 20 ppm [1] | pest or weed control at 200 ppm [2] | pest or weed control at 200 ppm [3] | inhibition of growth at 60 ppm [4] | pest or weed control at 200 ppm [6] | inhibition of growth at 60 ppm [7] | pest or weed control at 200 ppm [8]

C#Cc1cnc2ccc(OC(SC)C(=O)NC3CCC3)cc2c1 (centres unmarked) [Example 213]
≥ 60%: inhibition of growth at 20 ppm [1] | pest or weed control at 200 ppm [2] | pest or weed control at 200 ppm [3] | inhibition of growth at 60 ppm [4] | pest or weed control at 200 ppm [5] | pest or weed control at 200 ppm [6] | inhibition of growth at 60 ppm [7] | pest or weed control at 200 ppm [8]

C#Cc1cnc2ccc(OC(SC)C(=O)NC(C)C)cc2c1 (centres unmarked) [Example 98]
≥ 60%: inhibition of growth at 20 ppm [1] | pest or weed control at 200 ppm [2] | pest or weed control at 200 ppm [3] | inhibition of growth at 60 ppm [4] | pest or weed control at 200 ppm [5] | pest or weed control at 200 ppm [6] | inhibition of growth at 60 ppm [7] | pest or weed control at 200 ppm [8]

C#CCNC(=O)C(Oc1ccc2ncc(C#C)cc2c1)SC (centres unmarked) [Example 208]
≥ 60%: inhibition of growth at 20 ppm [1] | pest or weed control at 200 ppm [2] | pest or weed control at 200 ppm [3] | inhibition of growth at 60 ppm [4] | pest or weed control at 200 ppm [5] | pest or weed control at 200 ppm [6] | inhibition of growth at 60 ppm [7] | pest or weed control at 200 ppm [8]

C#Cc1cnc2c(F)cc(OC(SC)C(=O)NC(C)(C)C#CCOC)cc2c1 (centres unmarked) [Example 218]
≥ 60%: inhibition of growth at 20 ppm [1] | pest or weed control at 200 ppm [2] | pest or weed control at 200 ppm [3] | inhibition of growth at 60 ppm [4] | pest or weed control at 200 ppm [5] | pest or weed control at 200 ppm [6] | inhibition of growth at 60 ppm [7] | pest or weed control at 200 ppm [8]

C#CCOCC#CC(C)(C)NC(=O)C(Oc1cc2cc(C#C)cnc2cc1F)SC (centres unmarked) [Example 198]
≥ 60%: inhibition of growth at 20 ppm [1] | pest or weed control at 200 ppm [2] | pest or weed control at 200 ppm [3] | inhibition of growth at 60 ppm [4] | pest or weed control at 200 ppm [5] | pest or weed control at 200 ppm [6] | inhibition of growth at 60 ppm [7] | pest or weed control at 200 ppm [8]

C#Cc1cnc2ccc(OC(SC)C(=O)NC3(C#C)CCCCC3)cc2c1 (centres unmarked) [Example 206]
≥ 60%: inhibition of growth at 20 ppm [1] | pest or weed control at 200 ppm [2] | pest or weed control at 200 ppm [3] | inhibition of growth at 60 ppm [4] | pest or weed control at 200 ppm [5] | pest or weed control at 200 ppm [6] | inhibition of growth at 60 ppm [7] | pest or weed control at 200 ppm [8]

C#Cc1cnc2ccc(OC(SC)C(=O)NC3CC3)cc2c1 (centres unmarked) [Example 212]
≥ 60%: inhibition of growth at 20 ppm [1] | pest or weed control at 200 ppm [2] | pest or weed control at 200 ppm [3] | inhibition of growth at 60 ppm [4] | pest or weed control at 200 ppm [5] | pest or weed control at 200 ppm [6] | inhibition of growth at 60 ppm [7] | pest or weed control at 200 ppm [8]

C#Cc1cnc2cc(F)c(OC(SC)C(=O)NC(C)C)cc2c1 (centres unmarked) [Example 181]
≥ 60%: inhibition of growth at 20 ppm [1] | pest or weed control at 200 ppm [2] | pest or weed control at 200 ppm [3] | inhibition of growth at 60 ppm [4] | pest or weed control at 200 ppm [5] | pest or weed control at 200 ppm [6] | inhibition of growth at 60 ppm [7] | pest or weed control at 200 ppm [8]

C#Cc1cnc2c(F)cc(OC(SC)C(=O)NC(C)C)cc2c1 (centres unmarked) [Example 222]
≥ 60%: inhibition of growth at 20 ppm [1] | pest or weed control at 200 ppm [2] | pest or weed control at 200 ppm [3] | inhibition of growth at 60 ppm [4] | pest or weed control at 200 ppm [5] | pest or weed control at 200 ppm [6] | inhibition of growth at 60 ppm [7] | pest or weed control at 200 ppm [8]

C#Cc1cnc2ccc(OC(SC)C(=O)NC(C)(C#C)C#C)cc2c1 (centres unmarked) [Example 159]
≥ 60%: inhibition of growth at 20 ppm [1] | pest or weed control at 200 ppm [2] | pest or weed control at 200 ppm [3] | inhibition of growth at 60 ppm [4] | pest or weed control at 200 ppm [5] | pest or weed control at 200 ppm [6] | inhibition of growth at 60 ppm [7] | pest or weed control at 200 ppm [8]

C#Cc1cnc2cc(F)c(OC(SC)C(=O)NC(C)(C)C#CCOCC)cc2c1 (centres unmarked) [Example 191]
≥ 60%: inhibition of growth at 20 ppm [1] | pest or weed control at 200 ppm [2] | pest or weed control at 200 ppm [3] | inhibition of growth at 60 ppm [4] | pest or weed control at 200 ppm [5] | pest or weed control at 200 ppm [6] | inhibition of growth at 60 ppm [7] | pest or weed control at 200 ppm [8]

CSC(Oc1ccc2ncc(C#CCCl)cc2c1)C(=O)NC(C)(C)C (centres unmarked) [Example 143]
≥ 60%: inhibition of growth at 20 ppm [1] | pest or weed control at 200 ppm [3] | inhibition of growth at 60 ppm [4] | pest or weed control at 200 ppm [6] | inhibition of growth at 60 ppm [7]
